Assay: gradient 5% acetonitrile 3 min, to 50% in 2 min, to 85% in 15 min, held 3 min, 100 µL/min
Conditions: column: Zorbax Extend-C18 2.1 x 50 mm; eluents: water / acetonitrile, 0.1% formic acid
How it was run: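 Values are retention times taken from adduct peaks that software picked and an analyst inspected. The pure standards were run as mixtures of ~100 molecules on HPLC linked to a quadrupole time-of-flight mass spectrometer, in positive and negative ionization mode. A Zorbax Extend-C18 column (2.1 × 50 mm, 1.8 μm) was used at 100 μL/min with water and acetonitrile, each including 0.1% formic acid.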

Compound: Cc1ccc(C(C)NC(=O)c2cn3c(n2)CCCC3)c(C)c1 (centres undefined)
- RP-LC retention time: 642 s

Compound: C=CCN1N=C(C(=O)N2CCC(C)CC2)S(=O)(=O)c2ccc(Cl)cc21
- RP-LC retention time: 997 s

Compound: Cc1ccc(-n2c(C)c(C)c3c(=O)n(CC(=O)NC4CC4)cnc32)cc1
- RP-LC retention time: 769 s

Compound: O=C(C1CCCC1)N1CCn2c(nnc2-c2ccccc2)C1
- RP-LC retention time: 689 s

Compound: Cc1ccnc(N2CCCC(C(=O)NCCc3ccc(S(N)(=O)=O)cc3)C2)n1 (centres undefined)
- RP-LC retention time: 604 s

Compound: CN(C)c1ccc(CNC(=O)C2CCN(c3cncnc3N3CCCC3)CC2)cc1
- RP-LC retention time: 555 s

Compound: O=C(c1ccc(Cl)cc1)N1CCN(S(=O)(=O)c2cc3c4c(c2)CCC(=O)N4CCC3)CC1
- RP-LC retention time: 838 s

Compound: CCC(C)C(NC(=O)c1ccc(C(F)(F)F)cc1)C(=O)Nc1nc2ccccc2[nH]1 (centres undefined)
- RP-LC retention time: 847 s

Compound: C/C=C(\C)C(=O)O[C@H]1CC[C@@]2(C)[C@@H]3CC[C@H]4[C@]5(O)C[C@H](O)[C@@]6(O)[C@@H](CN7C[C@@H](C)CC[C@H]7[C@@]6(C)O)[C@]5(O)C[C@@]42O[C@]13O
- RP-LC retention time: 692 s

Compound: Cc1nn2c(CNS(=O)(=O)Cc3ccc(Cl)cc3)c(-c3ccccc3)nc2s1
- RP-LC retention time: 954 s

Compound: NS(=O)(=O)c1ccc(NC(=O)C2CCCN(c3ncnc4c3nc3n4CCCCC3)C2)cc1 (centres undefined)
- RP-LC retention time: 659 s

Compound: COc1ccc(Cn2c(=O)c3sccc3n(Cc3nc(-c4ccc(SC)cc4)no3)c2=O)cc1
- RP-LC retention time: 1160 s

Compound: CCn1cc(-c2nc(CC(=O)NCc3ccccc3F)cs2)c2cccnc21
- RP-LC retention time: 843 s

Compound: CCc1ccc(S(=O)(=O)N2CCC(N3CCN(Cc4ccccc4)C(=O)C3=O)CC2)cc1
- RP-LC retention time: 859 s

Compound: Cc1ccc(S(=O)(=O)c2cnc(N3CCC(C(N)=O)(N4CCCCC4)CC3)nc2N)cc1
- RP-LC retention time: 613 s

Compound: COc1cccc(S(=O)(=O)N2CCc3nc[nH]c3C2)c1
- RP-LC retention time: 602 s

Compound: COc1ccc(CCS(=O)(=O)NCC2(c3ccc(F)cc3)CC2)cc1
- RP-LC retention time: 950 s

Compound: Cc1cccc(-c2noc(Cc3nnc(-c4ccc(C)c(C)c4)o3)n2)c1
- RP-LC retention time: 1190 s

Compound: CN(C)[C@@H]1CN(C(=O)c2ccc(F)c(F)c2)C[C@H]1CO
- RP-LC retention time: 531 s

Compound: O=C(CCC1CCCN(S(=O)(=O)c2cccc(F)c2)C1)NC1CCCCC1 (centres undefined)
- RP-LC retention time: 936 s

Compound: COc1ccc(N2C(=O)C3N=NN(c4ccc(F)cc4)C3C2=O)cc1 (centres undefined)
- RP-LC retention time: 923 s

Compound: CC1(C(=O)NCc2ccc(Cl)cc2)Oc2cccnc2NC1=O (centres undefined)
- RP-LC retention time: 725 s

Compound: O=C(CN1C(=O)C2CCCCN2c2ccc(S(=O)(=O)N3CCCC3)cc21)NCCN1CCCC1 (centres undefined)
- RP-LC retention time: 636 s

Compound: CCc1noc([C@@H]2CC(F)(F)CN2C(=O)c2nccn2C)n1
- RP-LC retention time: 744 s

Compound: O=C(Cn1c(=O)c2cccn2c2ccc(F)cc21)NCCc1cccs1
- RP-LC retention time: 822 s

Compound: O=C(Nc1nc(-c2ccc(Cl)cc2)cs1)c1ccc(COc2ccccc2Cl)o1
- RP-LC retention time: 1310 s

Compound: Brc1ccc(-c2nnc(SCCCCOc3ccccc3)o2)cc1
- RP-LC retention time: 1280 s

Compound: CCc1ccc(CNC(=O)c2c(C)oc3nc(C)nc(N4CCCC4)c23)cc1
- RP-LC retention time: 795 s

Compound: COC(=O)c1ccc(CN2C(=O)C(O)(c3ccccc3)c3ccccc32)cc1 (centres undefined)
- RP-LC retention time: 899 s

Compound: O=C(CCc1nnc2c3cc(-c4ccc(F)cc4)nn3ccn12)NCCc1cccnc1
- RP-LC retention time: 601 s

Compound: COc1cccc(N2CC(c3nc4ccccc4n3CC(=O)N3CCCC3)CC2=O)c1 (centres undefined)
- RP-LC retention time: 619 s

Compound: O=C(NCCc1csc(-c2ccc(F)cc2)n1)c1ccc2nsnc2c1
- RP-LC retention time: 876 s

Compound: Cc1nc2ccccc2c(=O)n1Cc1noc(C2CC(=O)N(c3ccccc3)C2)n1 (centres undefined)
- RP-LC retention time: 722 s

Compound: CC1Cc2ccccc2N1C(=O)c1coc(NC(=O)c2ccco2)n1 (centres undefined)
- RP-LC retention time: 724 s

Compound: CC1=C(C(=O)N2CCOCC2)C(c2cc(Br)ccc2F)C2=C(CCCC2=O)N1 (centres undefined)
- RP-LC retention time: 659 s

Compound: O=C(CN1C(=O)CSc2ccc(C(=O)N3CCCCC3)cc21)NC1CCCCCC1
- RP-LC retention time: 839 s

Compound: CCCN1CCN(C(=O)C2CCN(S(=O)(=O)c3ccc4c(c3)NC(=O)C(C)S4)CC2)CC1 (centres undefined)
- RP-LC retention time: 593 s

Compound: CCOc1ccc(C2Cn3nnc(-c4nc(-c5ccccc5Cl)no4)c3CO2)cc1 (centres undefined)
- RP-LC retention time: 1150 s

Compound: CCN1CCc2nc(NC(=O)C3CCN(S(=O)(=O)c4cccs4)CC3)sc2C1
- RP-LC retention time: 634 s

Compound: COc1cc(NC(=O)C2CCCN(c3nc4ccccc4nc3C(F)(F)F)C2)cc(OC)c1 (centres undefined)
- RP-LC retention time: 1180 s

Compound: COC(=O)C(=Cc1ccccc1[N+](=O)[O-])C(=O)OC
- RP-LC retention time: 883 s

Compound: O=C(Nc1ccc(F)cc1)c1nnc(C(=O)N2CCC(C(=O)NCc3ccccn3)CC2)s1
- RP-LC retention time: 909 s

Compound: COc1ccc2[nH]cc(CCNC(=O)CN3C(=O)c4cccnc4Sc4ccccc43)c2c1
- RP-LC retention time: 734 s

Compound: CN(C)C(=O)c1ccc2c(c1)N(CC(=O)NCCCN1CCCC1=O)C(=O)C1CCCCN21 (centres undefined)
- RP-LC retention time: 619 s

Compound: O=C(Cn1c(=O)oc2ccccc21)N1C[C@@H](CO)[C@H](c2ccccn2)C1
- RP-LC retention time: 591 s

Compound: CC1=C(c2ccc(C)cc2)S(=O)(=O)N=C1N1CCCC1
- RP-LC retention time: 816 s

Compound: O=C(Nc1nc2ccccc2s1)C1CCN(C(=O)c2ccc(F)cc2)CC1
- RP-LC retention time: 808 s

Compound: Cc1ccc(CN2C[C@@H]3C(=O)N(CCc4ccccc4)C(=O)[C@@H]3C2)o1
- RP-LC retention time: 719 s

Compound: O=C1C(c2ccncc2)N(CCCc2ccccc2)C(=O)CN1c1ccccc1 (centres undefined)
- RP-LC retention time: 719 s

Compound: COc1ccc(NC2=NS(=O)(=O)C(c3ccccc3)=C2C)c(OC)c1
- RP-LC retention time: 910 s

Compound: CCn1cnc(S(=O)(=O)N2CCC(C(=O)Nc3cc(OC)ccc3OC)CC2)c1
- RP-LC retention time: 728 s

Compound: CN(Cc1nc2cc(C(=O)N3CCCC3)ccc2n1C)C(=O)Nc1ccc2c(c1)OCCO2
- RP-LC retention time: 688 s

Compound: Cn1cc(CN2CCCC(COc3ccccc3C(=O)N3CCCC3)C2)c2ccccc21 (centres undefined)
- RP-LC retention time: 695 s

Compound: O=c1[nH]c2ccc(NCc3cccc(Cl)c3Cl)cc2[nH]1
- RP-LC retention time: 728 s

Compound: COc1ccc(C)c(N2C(=O)CC(N3CCC(C(N)=O)CC3)C2=O)c1 (centres undefined)
- RP-LC retention time: 586 s

Compound: CCCOc1ccc(-c2noc(Cc3nc(-c4ccc5c(c4)OCO5)cs3)n2)cc1
- RP-LC retention time: 1310 s

Compound: COc1cc(OC)c(NC(=O)c2cc3c(n(-c4ccc(F)cc4)c2=O)CCCC3=O)cc1Cl
- RP-LC retention time: 970 s

Compound: CCCN1CCN(C(=O)C2CCCN(S(=O)(=O)c3cc(-c4noc(C)n4)cs3)C2)CC1 (centres undefined)
- RP-LC retention time: 638 s

Compound: COc1cc2ncc(C#N)c(N3CCC(C(=O)Nc4cccc(Cl)c4)CC3)c2cc1OC
- RP-LC retention time: 816 s

Compound: Cc1nc2cc(-c3noc(-c4cccc(C#N)c4)n3)ccc2o1
- RP-LC retention time: 977 s

Compound: O=C(c1ccc(C(F)(F)F)s1)N1CCN(c2nnc3ccccn23)CC1
- RP-LC retention time: 711 s

Compound: CCOC(=O)c1[nH]c(C)c(CCC(=O)N2CCN(C(=O)c3ccco3)CC2)c1C
- RP-LC retention time: 709 s

Compound: CN(CC1(C)CCOCC1)S(=O)(=O)c1cn(C)cn1
- RP-LC retention time: 615 s

Compound: Cc1cccc(NC(=O)CN2CCC(COCc3ccccc3)CC2)c1C
- RP-LC retention time: 610 s

From the METLIN SMRT retention time set (Domingo-Almenara et al. 2019)
